Results published in the supplement of paper PMC11451515.

Key:
Details in all cases: 48 h
NOMO1 [1] = assay: cell viability relative to DMSO control; higher = less cytotoxic
Method in brief: (§1)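 Cells were incubated for 48 h at 37°C before CellTiter-Glo One luminescence was read. The cells were NOMO1 or SEM (500 cells/well) or P12-Ichikawa (1000 cells/well) leukemia cells, adapted for at least four passages in each medium and seeded in 1536-well plates (5 μl). Dosing used library compounds in DMSO applied by pin over 11 threefold points, 47 μM to 0.79 nM. Viability is the per-plate percentage of DMSO wells, with cell-free wells as background.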

P12-Ichikawa [2] = assay: as above
Method in brief: as §1

SEM cells [3] = assay: as above
Method in brief: as §1

NOMO1 [4] = assay: AUC of viability dose-response curve (% viability x log10 dose units); higher = less sensitive
Method in brief: (§2)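 Area under the curve was integrated by trapezoidal rule from a log-logistic fit of normalised viability, with curves exceeding full viability scaled and quality-control failures removed. The fit had four parameters over log10 doses. Viability came from CellTiter-Glo One luminescence, normalised per plate to DMSO and cell-free wells, after leukemia cells adapted to each medium (500 or 1000 cells/well, 1536-well plates) were exposed to library compounds in DMSO for 48 h at 37°C. The 11 threefold doses ran from 47 μM to 0.79 nM.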

P12-Ichikawa [5] = assay: as above
Method in brief: as §2

SEM cells [6] = assay: as above
Method in brief: as §2

COc1cc2ncnc(Nc3ccc(F)c(Cl)c3)c2cc1NC(=O)/C=C/CN1CCCCC1
cell viability [%]
Details | NOMO1 [1] | P12-Ichikawa [2] | SEM cells [3]
HPLM + 10% dialyzed FBS, 0.000781 µM | 92.2 | 109 | 94.2
HPLM + 10% dialyzed FBS, 0.00234 µM | 105 | 108 | 112
HPLM + 10% dialyzed FBS, 0.00702 µM | 114 | 103 | 110
HPLM + 10% dialyzed FBS, 0.0211 µM | 102 | 106 | 102
HPLM + 10% dialyzed FBS, 0.0632 µM | 108 | 107 | 105
HPLM + 10% dialyzed FBS, 0.19 µM | 118 | 97.6 | 99.1
HPLM + 10% dialyzed FBS, 0.569 µM | 81.9 | 106 | 94.6
HPLM + 10% dialyzed FBS, 1.71 µM | 81.8 | 90.1 | 85.5
HPLM + 10% dialyzed FBS, 5.12 µM | 72.1 | 85.4 | 76.7
HPLM + 10% dialyzed FBS, 15.4 µM | 65.6 | 79.1 | 71.4
HPLM + 10% dialyzed FBS, 46.1 µM | 41.5 | 67.9 | 42.4
RPMI 5 mM glucose + 10% FBS, 0.000781 µM | 86.4 | 106 | 119
RPMI 5 mM glucose + 10% FBS, 0.00234 µM | 93.7 | 106 | 129
RPMI 5 mM glucose + 10% FBS, 0.00702 µM | 91.1 | 103 | 120
RPMI 5 mM glucose + 10% FBS, 0.0211 µM | 86.3 | 101 | 119
RPMI 5 mM glucose + 10% FBS, 0.0632 µM | 98.4 | 102 | 122
RPMI 5 mM glucose + 10% FBS, 0.19 µM | 84.9 | 106 | 117
RPMI 5 mM glucose + 10% FBS, 0.569 µM | 89.6 | 102 | 124
RPMI 5 mM glucose + 10% FBS, 1.71 µM | 88.4 | 92.6 | 91.3
RPMI 5 mM glucose + 10% FBS, 5.12 µM | 89.1 | 85.7 | 88.6
RPMI 5 mM glucose + 10% FBS, 15.4 µM | 91.7 | 82.9 | 80.2
RPMI 5 mM glucose + 10% FBS, 46.1 µM | 75.5 | 75.2 | 42.3
RPMI 5 mM glucose + 10% dialyzed FBS, 0.000781 µM | 95.7 | 101 | 97.9
RPMI 5 mM glucose + 10% dialyzed FBS, 0.00234 µM | 97.7 | 109 | 85.6
RPMI 5 mM glucose + 10% dialyzed FBS, 0.00702 µM | 93.6 | 94.5 | 96.4
RPMI 5 mM glucose + 10% dialyzed FBS, 0.0211 µM | 85.4 | 109 | 116
RPMI 5 mM glucose + 10% dialyzed FBS, 0.0632 µM | 91.3 | 105 | 93.3
RPMI 5 mM glucose + 10% dialyzed FBS, 0.19 µM | 96.6 | 102 | 87
RPMI 5 mM glucose + 10% dialyzed FBS, 0.569 µM | 85.1 | 104 | 104
RPMI 5 mM glucose + 10% dialyzed FBS, 1.71 µM | 95.2 | 88.4 | 76.6
RPMI 5 mM glucose + 10% dialyzed FBS, 5.12 µM | 78.3 | 80.9 | 77.6
RPMI 5 mM glucose + 10% dialyzed FBS, 15.4 µM | 65.6 | 76 | 66.7
RPMI 5 mM glucose + 10% dialyzed FBS, 46.1 µM | 72.9 | 67.8 | 41.3

AUC of viability dose-response curve
Details | NOMO1 [4] | P12-Ichikawa [5] | SEM cells [6]
HPLM + 10% dialyzed FBS | 408 | 433 | 417
RPMI 5 mM glucose + 10% FBS | 426 | 444 | 415
RPMI 5 mM glucose + 10% dialyzed FBS | 418 | 436 | 416
